In patent US20240197715A1, “PHARMACEUTICAL COMBINATIONS AND USES THEREOF” (NOVARTIS AG, priority 2022, published 2024):

Experiments:
[1] = test system: SW48 colorectal carcinoma cells; experiment: SW48 xenograft efficacy in nude mice; assay type: in vivo; settings: for effect on tumor growth: irinotecan 60 mg/kg i.v. weekly
Protocol: All animals were allowed to adapt for 7 days and housed in a pathogen-controlled environment (5 mice/Type III cage) with access to food and water ad libitum and were identified with transponders.
5.0×10^6 SW48 colorectal carcinoma cells were implanted subcutaneously in nude mice (Charles River, Germany). Treatment was initiated when tumors reached 150-200 mm^3 volume. Efficacy studies and tumor response were measured as above.

[2] = test system: SW620 (CCL-227, ATCC) MSS colorectal carcinoma xenografts; experiment: SW620 MSS CRC xenograft efficacy in nude mice; assay type: in vivo; settings: for effect on tumor growth of parental SW620 tumors: irinotecan 15 mg/kg i.v. once weekly, Compound A 120 mg/kg p.o. daily
Protocol: SW620 (CCL-227, ATCC) [MSS colorectal carcinoma (CRC)] was cultured in DMEM (#1-26F01-I, AMIMED) supplemented with 10% FCS (#2-0-1F30-I, BioConcept), 4 mM L-glutamine (#5-10K50-H, BioConcept) and 1 mM Sodium pyruvate (#5-60F00-H, BioConcept). Cells were passaged by washing first with Dulbecco's PBS without Ca^2+/Mg^2+ (#3-05F29-1, AMIMED), trypsinising cells with Trypsin 0.05% in PBS with EDTA (#5-51F00-H, AMIMED), centrifuging in the respective culture media, and splitting cells into fresh media at a ratio of 1:8, 2 times per week.
Athymic nude mice (Charles River, Germany) were allowed to adapt for 7 days upon arrival at the animal facility and housed in a pathogen-controlled environment (5 mice/Type III cage) with access to food and water ad libitum. Animals were identified with transponders. Studies described in this report were performed according to procedures covered by a permit number issued by the Kantonales Veterinäramt Basel-Stadt.
Subcutaneous tumors were initiated by injecting 5.0×10^6 SW620 tumor cells in 50% Matrigel (#354234, Corning) in HBSS (#H6648, SIGMA) in the right flank of nude mice. The efficacy experiment (n=6), started 11 days post-cell injection.
Compound A and Temozolomide were made-up fresh on a weekly basis and kept at 4° C. and protected from light. Compound A was dissolved in 20% Hydroxypropyl-ß-Cyclodextrine (HP-ß-CD, #H107-100G, SIGMA) in UltraPure™ Water (#10977-035, Invitrogen) and administered p.o. at 10 ml/kg. Temozolomide was dissolved in 30% PEG-400 (#202398-500G, SIGMA) and 70% Dulbecco's PBS without Ca^2+/Mg^2+ (#3-05F29-1, AMIMED) and administered p.o. at 10 mL/kg on 5 consecutive days within a 21 days cycle. Irinotecan was made-up fresh for each treatment once a week by diluting with NaCl 0.9% (#3-06S00-I, BioConcept). The solution was administered i.v. at 5 mL/kg.
Tumor volumes (TVol), determined from caliper measurements (using the formula I*w2*π/6) were measured two times per week. Tumor response was quantified by the change in tumor volume (endpoint minus starting value in mm^3) as the T/C (the ratio between the tumor volume in the treated group and in the untreated control group). In the case of a tumor regression or to assess the percentage of change in TVol, the tumor response was quantified by the percentage of regression of the starting TVol. The body-weight (BW) of the animal was measured three times per week allowing calculation at any particular time-point relative to the day of initiation of treatment (day 0) of the percentage change in BW (4% BW).
At day 43 post-cell injection, irinotecan was administered intravenously at 15 mg/kg once weekly for 7 weeks in combination with Compound A, also administered from day 43, orally at 120 mg/kg daily for 52 days.
Starting 11 days post-cell injection, temozolomide was administered orally on a 21 day cycle of 5 consecutive days at 100 mg/kg on 5 consecutive days (day 11 to day 15 and day 32 to day 36). At day 43 post-cell injection, to the first group irinotecan was administered intravenously at 15 mg/kg once weekly for 6 weeks, and to the second group irinotecan was administered intravenously at 15 mg/kg once weekly for 6 weeks in combination with Compound A, also administered from day 43, orally at 120 mg/kg daily for 46 days.

[3] = Example 12, Compound A 40 mg/kg p.o. qd, trametinib 0.3 mg/kg p.o. qd
[4] = Example 18, Compound A 20 mg/kg p.o. qd

| Structure (SMILES) | duration of response / relapse [1, 3] | tumor regression [1, 3] [%] | tumor regression ([1]; Example 15, Compound A 20 mg/kg p.o. qd, BAY-1895344 50 mg/kg p.o. twice a day, 3 days on/4 off) [%] | duration of response / relapse ([1]; Example 15, Compound A 20 mg/kg, BAY-1895344 50 mg/kg) | effect on tumor growth [1, 4] | duration of response / relapse ([1]; Example 18, Compound A 20 mg/kg, irinotecan 60 mg/kg) | outcome after stopping temozolomide and irinotecan on day 129 ([2]; SW620, all treatments stopped vs still treated with compound A only) | effect on tumor growth of parental SW620 tumors [2] | relapse of TMZ pre-treated SW620 tumors ([2]; after 2 cycles TMZ, treatment from day 43) |
| --- | --- | --- | --- | --- | --- | --- | --- | --- | --- |
| CCc1c(N2CCN(C(=O)c3ncnc(C)c3O)CC2)c(=O)n2nc(C3=CCOCC3)nc2n1CC(=O)Nc1ccc(C(F)(F)F)cc1Cl [Compound A] | for 30 days followed by relapse in all tumor-bearing mice | 40 | 15 | for 30 days followed by relapse in all tumor-bearing mice | stable disease | for 21 days followed by a relapse in all tumor-bearing mice | remained below 50% tumor regression | delay of the tumor growth |  |
| CCc1c2c(nc3ccc(OC(=O)N4CCC(N5CCCCC5)CC4)cc13)-c1cc3c(c(=O)n1C2)COC(=O)[C@]3(O)CC [irinotecan] |  |  |  |  | no effect |  |  | delay of the tumor growth | the tumors relapsed |
